{"source": "patent US20220062240A1", "about": "“METHODS OF TREATING CANCER USING A CLK INHIBITOR” (BioSplice Therapeutics, Inc., priority 2018, published 2022)", "key": {"[1]": {"test_system": "nuclear speckles in SW480 cells", "experiment": "Nuclear speckle staining (phospho-SC35)", "format": "cell-based, human", "settings": "SW480, 6 hours, 0.3-10 μM", "method": "[…]. The cells were stained with a phospho-SC35 antibody (green) and a Hoechst 33342 nuclear stain (blue). Scale bar, 10 μm.\nFIG. 9A is a set of representative immunofluorescence images (×100 magnification) of SW480 cells treated with indicated concentrations for 6 hours. The cells were stained with a phospho-SC35 antibody (green) and a Hoechst 33342 nuclear stain (blue). Scale bar, 10 μm.\n[…]. After approximately 6 hr, cells were fixed and stained a phospho-SC35 antibody (Santa Cruz Biotechnology). Cells were then labelled with an Alexa-Fluor 488 secondary antibody (Thermo Fisher) containing DAPI (Thermo Fisher). Cells were imaged at 100× magnification."}, "[2]": {"test_system": "SW480 cells", "experiment": "Wnt pathway gene (qRT-PCR) and protein (immunoblot) expression", "format": "cell-based, human", "method": "Fold-change relative to DMSO is shown (n=3 biological replicates per group, Mean±SD, **P<0.01; ***P<0.001, student's two-tailed t-test).\n(§1) FIG. 6D is an immunoblot showing Wnt pathway-related protein expression in SW480 cells treated as indicated for 24 hours. The proteins were separated into nuclear and cytoplasmic fractions. GAPDH and Lamin B1 represent cytoplasmic and nuclear protein loading controls, respectively. The blots are representative of two experiments.\nas §1, with “6E” for “6D”, “48” for “24”\nThe fold-change relative to DMSO is shown (n=3 biological replicates per group, Mean±SD, *P<0.05; **P<0.01; ***P<0.001, student's two-tailed t-test).\nFIG. 7C is an immunoblot showing protein expression of hits identified in FIG. 7A. SW480 cells were treated as indicated for 24 hours and proteins were separated into nuclear and cytoplasmic fractions. GAPDH and Lamin B1 represent the cytoplasmic and nuclear protein loading controls, respectively. The blots are representative of two experiments.\nFor indicated experiments, cells were pelleted by centrifugation and washed with PBS and protein from the cell pellet was fractionated into cytoplasmic and nuclear fractions using a NE-PER™Nuclear and Cytoplasmic Extraction Reagents kit containing Halt™ protease and phosphatase inhibitors (Thermo Fisher). Protein concentrations of the samples were quantified using the Pierce Micro BCA protein assay kit (Thermo Fisher). […] Primary antibodies were incubated overnight at 4° C., with GAPDH, Lamin B1 or β-actin being used as loading controls (refer to Table 19 for primary antibodies and dilutions used).\nTotal RNA was isolated using RNeasy Plus mini kit (Qiagen) or MagMAX Total RNA kit (Thermo Fisher) as per the manufacturers' protocol. cDNA was synthesized using the iScript cDNA Synthesis Kit (Bio-Rad), followed before performing qRT-PCR. Reactions were then run on a real-time PCR system (CFX384; Bio-Rad). Relative gene expression was determined by normalizing to GAPDH using the ΔΔCt method."}, "[3]": {"test_system": "HT29", "experiment": "CellTiter-Blue Cell Viability Assay", "format": "cell-based", "settings": "Homo sapiens, HT-29, 96 h; HT29, KRASwt, BRAFmut, APCmut, 4 days", "method": "(§2) […]. Effect on cell proliferation was performed using the CellTiter-Blue*® viability assay or the CellTiter-Glo© Viability Assay as recommended by the manufacturer (Promega).\n(§3) […]. Fluorescence signal was measured at 560ex/590em nm using the Cytation3 multimodal plate reader (BioTek)."}, "[4]": {"test_system": "RKO", "experiment": "CellTiter-Blue Cell Viability Assay", "format": "cell-based", "settings": "Homo sapiens, 96 h, KRASwt, BRAFmut, 4 days", "method": "as §2, §3"}, "[5]": {"test_system": "COLO 205", "experiment": "CellTiter-Blue Cell Viability Assay", "format": "cell-based", "settings": "Homo sapiens, 96 h; COLO 205, KRASwt, BRAFmut, APCmut, 4 days", "method": "as §2, §3"}, "[6]": {"test_system": "SW48", "experiment": "CellTiter-Blue Cell Viability Assay", "format": "cell-based", "settings": "Homo sapiens, 96 h; SW48, KRASwt, APCmut, CTNNB1mut, 4 days", "method": "as §2, §3"}, "[7]": {"test_system": "DLD-1", "experiment": "CellTiter-Blue Cell Viability Assay", "format": "cell-based", "settings": "Homo sapiens, 96 h; DLD-1, KRASmut, APCmut, 4 days", "method": "as §2, §3"}, "[8]": {"test_system": "LS513", "experiment": "CellTiter-Blue Cell Viability Assay", "format": "cell-based", "settings": "Homo sapiens, LS-513, 96 h; LS513, KRASmut, CTNNB1mut, BRAFmut, 4 days", "method": "as §2, §3"}, "[9]": {"test_system": "HCT 116", "experiment": "CellTiter-Blue Cell Viability Assay", "format": "cell-based", "settings": "Homo sapiens, 96 h; HCT 116, KRASmut, CTNNB1mut, 4 days", "method": "as §2, §3"}, "[10]": {"test_system": "HCT 15", "experiment": "CellTiter-Blue Cell Viability Assay", "format": "cell-based", "settings": "Homo sapiens, 96 h; HCT 15, KRASmut, APCmut, 4 days", "method": "as §2, §3"}, "[11]": {"test_system": "T84", "experiment": "CellTiter-Blue Cell Viability Assay", "format": "cell-based", "settings": "Homo sapiens, 96 h; T84, KRASmut, APCmut, 4 days", "method": "as §2, §3"}, "[12]": {"test_system": "LoVo", "experiment": "CellTiter-Blue Cell Viability Assay", "format": "cell-based", "settings": "Homo sapiens, 96 h, KRASmut, APCmut, 4 days", "method": "as §2, §3"}, "[13]": {"test_system": "C2BBel", "experiment": "CellTiter-Blue Cell Viability Assay", "format": "cell-based", "settings": "Homo sapiens, 96 h, KRASwt, APCmut, 4 days", "method": "as §2, §3"}, "[14]": {"test_system": "LS123", "experiment": "CellTiter-Blue Cell Viability Assay", "format": "cell-based", "settings": "Homo sapiens, LS-123, 96 h; LS123, KRASmut, APCmut, 4 days", "method": "as §2, §3"}, "[15]": {"test_system": "COLO 320HSR", "experiment": "CellTiter-Blue Cell Viability Assay", "format": "cell-based", "settings": "Homo sapiens, 96 h, KRASwt, APCmut, 4 days", "method": "as §2, §3"}, "[16]": {"test_system": "HuTu 80", "experiment": "CellTiter-Blue Cell Viability Assay", "format": "cell-based", "settings": "Homo sapiens, HuTu80, 96 h; HuTu 80, KRASwt, CTNNB1mut, 4 days", "method": "as §2, §3"}, "[17]": {"test_system": "SW480", "experiment": "CellTiter-Blue Cell Viability Assay", "format": "cell-based", "settings": "Homo sapiens, 96 h; SW480, KRASmut, APCmut, 4 days", "method": "as §2, §3"}, "[18]": {"test_system": "SW1417", "experiment": "CellTiter-Blue Cell Viability Assay", "format": "cell-based", "settings": "Homo sapiens, 96 h; SW1417, KRASwt, BRAFmut, APCmut, 4 days", "method": "as §2, §3"}, "[19]": {"test_system": "SW620", "experiment": "CellTiter-Blue Cell Viability Assay", "format": "cell-based", "settings": "Homo sapiens, SW-620, 96 h; SW620, KRASmut, APCmut, 4 days", "method": "as §2, §3"}, "[20]": {"settings": "SW480, 24 hours, compared to DMSO"}}, "data": [{"smiles": "CN1CCN(c2cc(C(=O)Nc3cc4cc(-c5cnn(C)c5)ccc4cn3)ccn2)CC1", "note": "[Compound 12]", "values": [{"measurement": "enlargement of nuclear speckles", "setting": "[1]", "result": "increased enlargement"}, {"measurement": "cytoplasmic and nuclear protein levels of β-catenin", "setting": "[2]; SW480", "result": "unaffected"}, {"measurement": "Wnt pathway protein expression in cytoplasmic or nuclear fractions", "setting": "[2]; SW480, 24 or 48 hours, all tested proteins except β-catenin", "result": "inhibition of protein expression"}, {"measurement": "FRZB gene expression", "setting": "[2]; SW480, 24 hours", "result": "Upregulation"}, {"measurement": "GSK3β gene expression", "setting": "[2]; SW480, 24 hours", "result": "no effect"}, {"measurement": "PPP3CC gene expression", "setting": "[2]; SW480, 24 hours", "result": "inhibitory effect"}, {"measurement": "gene and protein expression of LRP6", "setting": "[2]; SW480, 24 hours", "result": "inhibited, but not as potently as LRP5"}, {"measurement": "gene expression of AXIN2, LEF1, MYC, TCF7, CTNNB1 and TCF7L2", "setting": "[2]; [20]", "result": "dose-dependent decrease"}, {"measurement": "gene expression of LRP5, DVL2, BTRC, ERRB2, MAPK8, PKN1", "setting": "[2]; [20]", "result": "significantly downregulated"}, {"measurement": "protein expression of LRP5, LRP6, DVL2, β-TrcP and HER2", "setting": "[2]; SW480, 24 hours, relative to DMSO", "result": "pronounced dose-dependent inhibition"}, {"measurement": "inhibitory effects on MAPK8 and PKN1 protein expression", "setting": "[2]; SW480, compared to vehicle", "result": "less profound"}, {"measurement": "EC50", "setting": "[3]", "result": 189, "unit": "nM"}, {"measurement": "EC50", "setting": "[4]", "result": 120, "unit": "nM"}, {"measurement": "EC50", "setting": "[5]", "result": 150, "unit": "nM"}, {"measurement": "EC50", "setting": "[6]", "result": 91, "unit": "nM"}, {"measurement": "EC50", "setting": "[7]", "result": 303, "unit": "nM"}, {"measurement": "EC50", "setting": "[8]", "result": 321, "unit": "nM"}, {"measurement": "EC50", "setting": "[9]", "result": 103, "unit": "nM"}, {"measurement": "EC50", "setting": "[10]", "result": 120, "unit": "nM"}, {"measurement": "EC50", "setting": "[11]", "result": 127, "unit": "nM"}, {"measurement": "EC50", "setting": "[12]", "result": 194, "unit": "nM"}, {"measurement": "EC50", "setting": "[13]", "result": 78, "unit": "nM"}, {"measurement": "EC50", "setting": "[14]", "result": 472, "unit": "nM"}, {"measurement": "EC50", "setting": "[15]", "result": 110, "unit": "nM"}, {"measurement": "EC50", "setting": "[16]", "result": 178, "unit": "nM"}, {"measurement": "EC50", "setting": "[17]", "result": 85, "unit": "nM"}, {"measurement": "EC50", "setting": "[18]", "result": 282, "unit": "nM"}, {"measurement": "EC50", "setting": "[19]", "result": 87, "unit": "nM"}]}]}
